According to patent US10759826B2, “15β-substituted estrone derivatives as selective inhibitors of 17β-hydroxysteroid-dehydrogenases, method of preparation and use thereof” (USTAV ORGANICKE CHEMIE A BIOCHEMIE AV CR, V.V.I., priority 2016, dated 2020):
Where two headings read alike, the source gives them in different places.

Columns and labels:
[1] = test system: BJ; test: MTT cytotoxicity assay, BJ fibroblasts; type: cell-based; conditions: Homo sapiens, non-tumor fibroblasts
Text: (§1) Compounds 5, 6, 7, 9, 14 and 15 were used for evaluation of antitumor activity. MTT cytotoxicity assay was used in vitro on cell lines derived from normal tissues and from tumors. Specifically, these were the K562 line (human myeloid leukemia), K562-Tax (human myeloid leukemia resistant to taxol and overexpressing PgP protein for multidrug resistance), CEM (T-lymphoblastic leukemia), CEM-DNR bulk (T-lymphoblastic leukemia resistant doxorubicin, lacking the expression of the target gene for inhibitors of topoisomerase II alpha), A549 line (human lung adenocarcinoma), HCT116p53 wt (human colon cancer), HCT116p53−/− (human colon cancer, mutant p53), U2OS line of human osteosarcoma and two fibroblast lines MRC5 and BJ as examples of non-tumor cells. Expression characteristics, profiles of susceptibility to classical antitumor drugs and methodology of the MTT cytotoxicity assay were repeatedly published (e.g. Noskova et al. Neoplasma 2002, 49, 418; S̆arek et. al. J. Med. Chem. 2003, 46, 25, 5402).

[2] = test system: K562-Tax; test: MTT cytotoxicity assay, K562-Tax; type: cell-based; conditions: Homo sapiens
Text: as §1

[3] = molecular target: T1, human 17βHSD type 5 (Homo sapiens, UniProt P42330); test: Inhibition of recombinant 17βHSD type 5, tritium-labeled substrate conversion; type: biochemical; conditions: 1 μmol · l^−1 test substance
T1 construct: made in house; host or cells: bacteria (Escherichia coli); supernatant of the lysate
T1 sequence (P42330 1-323): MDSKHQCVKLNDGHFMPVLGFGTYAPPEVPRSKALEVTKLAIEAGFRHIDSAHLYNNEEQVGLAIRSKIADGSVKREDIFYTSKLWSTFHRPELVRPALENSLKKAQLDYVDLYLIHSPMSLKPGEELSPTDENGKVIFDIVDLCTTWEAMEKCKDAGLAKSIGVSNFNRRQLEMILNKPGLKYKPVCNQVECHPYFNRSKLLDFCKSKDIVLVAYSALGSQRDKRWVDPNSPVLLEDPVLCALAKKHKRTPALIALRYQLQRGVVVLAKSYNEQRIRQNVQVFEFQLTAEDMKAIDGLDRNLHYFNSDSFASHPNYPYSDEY
Procedure: (§2) The inhibitory activity of the test substances was determined for individual isoenzymes from the 17βHSD family, specifically these were the types 1, 2, 3, 4, 5 and 7. Escherichia coli and mammalian cells expression systems were used for recombinant expression of individual isozymes of human 17βHSD. Only in the case of 17HSD5 the enzyme was partially purified and supernatant obtained by centrifugation of the bacterial lysate was used for testing. Systems expressing specific 17βHSD type were suspended in a reaction buffer and incubated with tritium-labeled substrates and respective cofactors at 37° C. in two parallel tests: the control arrangement (DMSO without the inhibitor) and the test arrangement (DMSO with the inhibitor). DMSO serves as a negative control in this case. After 20-30% of the substrate was converted by the activity of the enzyme to the product in a control test, both tests were terminated. Substrate and product from the test arrangement were isolated by SPE (solid phase extraction), and then separated by reverse phase HPLC. Substrate conversion was determined by integration of the signals of the substrate and product, and was expressed in %. For the purposes of the subsequent calculation of enzyme inhibition, the conversion of the control test was designated as 0% inhibition. All tests were performed in triplicates. IC50 values were subsequently determined by a standard method using the “One Ligand Binding” model of SigmaPlot kinetics module (Schustera et. al. J. Ster. Biochem. Mol. Biol. 2011, 125, 148; Möller et. al. Biioorg. Med. Chem. Lett. 2009, 19, 6740; Möller et. al. PLoS One, 2010, 5, 6, e10969).

[4] = molecular target: T2, human 17βHSD1 (Homo sapiens, UniProt P14061); test: 17βHSD inhibition in MCF-7 cells transfected with human 17βHSD1, E1 in supernatant; type: cell-based; parameters: expressed in transfected cells; host or cells: MCF-7; conditions: 10 μmol·l^−1
T2 sequence (P14061 1-328): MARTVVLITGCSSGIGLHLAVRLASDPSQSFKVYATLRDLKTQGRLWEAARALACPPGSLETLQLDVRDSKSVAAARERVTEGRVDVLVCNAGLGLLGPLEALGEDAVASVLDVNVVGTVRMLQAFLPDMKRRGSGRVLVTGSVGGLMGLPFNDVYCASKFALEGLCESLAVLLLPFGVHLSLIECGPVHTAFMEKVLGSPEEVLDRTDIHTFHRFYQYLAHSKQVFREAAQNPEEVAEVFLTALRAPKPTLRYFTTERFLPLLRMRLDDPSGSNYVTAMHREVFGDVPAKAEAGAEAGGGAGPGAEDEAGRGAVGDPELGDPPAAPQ
Procedure: (§3) For this experiment, non-cytotoxic concentrations of estrone derivative (10 μmol·l^−1) were used. E1 levels were determined by an immuno-enzymatic assay.

[5] = test system: MRCS; test: MTT cytotoxicity assay, MRC5 fibroblasts; type: cell-based; conditions: Homo sapiens, Fibroblast, non-tumor fibroblasts
Text: as §1

[6] = test system: A549; test: MTT cytotoxicity assay, A549; type: cell-based; conditions: Homo sapiens
Text: as §1

[7] = molecular target: T3, human 17βHSD type 1 (Homo sapiens, UniProt P14061); test: Inhibition of recombinant 17βHSD type 1, tritium-labeled substrate conversion; type: biochemical; conditions: for inhibition at 0.1 µM: 0.1 μmol · l^−1 test substance; for inhibition at 0.1 µM / inhibition at 1 µM: read-out: % of inhibition of human 17βHSD1; for inhibition at 1 µM: 1 μmol · l^−1 test substance; for IC50: read-out: 17βHSD1 IC50
T3 construct: made in house; expressing system suspended in buffer, not purified
T3 sequence (P14061 1-328): T2 sequence (P14061 1-328)
Procedure: as §2

[8] = test system: U2OS; test: MTT cytotoxicity assay, U2OS; type: cell-based; conditions: Homo sapiens
Text: as §1

[9] = test system: K562; test: MTT cytotoxicity assay, K562; type: cell-based; conditions: Homo sapiens
Text: as §1

[10] = test system: HCT116p53-/-; test: MTT cytotoxicity assay, HCT116p53-/-; type: cell-based; conditions: Homo sapiens
Text: as §1

[11] = test system: HCT116p53 wt; test: MTT cytotoxicity assay, HCT116p53 wt; type: cell-based; conditions: Homo sapiens
Text: as §1

[12] = test system: CEM; test: MTT cytotoxicity assay, CEM; type: cell-based; conditions: Homo sapiens, CCRF-CEM
Text: as §1

[13] = molecular target: T2, human 17βHSD1; test: 17βHSD inhibition in CHO cells transfected with human 17βHSD1, E1 in supernatant; type: cell-based; parameters: expressed in transfected cells; conditions: 10 μmol·l^−1
Procedure: as §3

[14] = test system: CEM-DNR-bulk; test: MTT cytotoxicity assay, CEM-DNR-bulk; type: cell-based
Text: as §1

[15] = molecular target: luciferase (Photinus pyralis, UniProt P08659); test: Luciferase activity in U2OS cell line constitutively expressing luciferase gene; type: cell-based; conditions: read-out: Luciferase activity IC50
Procedure: In order to distinguish between the specific, steroid hormone response elements-driven regulation of the luciferase expression and the possible effects of test compounds on the luciferase activity, compounds were tested in parallel experiment on a U2OS cell line constitutively expressing luciferase gene.
Luciferase activity was determined by a commercial kit Britelite plus a luciferase reporter gene assay reagent (Perkin Elmer, USA), 24 h after addition of compounds to cells. The intensity of luminescence was measured on an Envision multimode spectrophotometer (PerkinElmer).

[16] = test system: U2OS cells; test: Cell viability (ATP) of unmodified U2OS cells, parallel to reporter assay; type: cell-based, human
Procedure: To separate the antagonist activity of test compounds from the cytotoxic effect on U2OS cells (cell line derived from osteosarcoma), an experiment for determination of cell viability was performed in parallel with the reporter assay. Original, genetically unmodified U2OS cells were grown under the same conditions as the reporter cells. These cells were further treated and incubated with the compounds in a completely identical manner and for the same time as cells in the reporter assay. At the end of the experiment, the amount of ATP was determined using BriteLite luciferase homogeneous assay as a measure of cell viability. The data were then processed together with data from the reporter assays.

[17] = molecular target: T4, estrogen receptor α (ERα) (Homo sapiens, UniProt P03372); test: ERα luciferase reporter assay in U2OS cells; type: cell-based; conditions: testing range 10 μmol·l^−1 to 1 nmol·l^−1
T4 construct: expressed in transfected cells
T4 sequence (P03372 1-595): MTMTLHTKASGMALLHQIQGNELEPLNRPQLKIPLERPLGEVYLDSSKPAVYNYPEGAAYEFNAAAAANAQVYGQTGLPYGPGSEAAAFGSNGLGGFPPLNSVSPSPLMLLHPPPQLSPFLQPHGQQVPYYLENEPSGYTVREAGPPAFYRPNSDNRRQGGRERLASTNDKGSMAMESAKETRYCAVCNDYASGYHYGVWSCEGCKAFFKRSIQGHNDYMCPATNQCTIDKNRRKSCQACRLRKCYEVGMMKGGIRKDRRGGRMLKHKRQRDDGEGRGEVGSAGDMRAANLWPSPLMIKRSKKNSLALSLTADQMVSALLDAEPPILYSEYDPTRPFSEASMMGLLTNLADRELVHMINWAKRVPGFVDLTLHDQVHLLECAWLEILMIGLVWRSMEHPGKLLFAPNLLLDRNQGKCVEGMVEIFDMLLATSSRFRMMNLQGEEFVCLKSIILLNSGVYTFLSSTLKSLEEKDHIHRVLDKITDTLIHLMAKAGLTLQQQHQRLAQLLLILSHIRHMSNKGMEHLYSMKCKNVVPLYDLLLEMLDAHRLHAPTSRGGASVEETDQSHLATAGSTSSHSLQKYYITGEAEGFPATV

[18] = molecular target: T5, 17βHSD5 (Homo sapiens, UniProt P42330); conditions: cited from earlier work; for IC50: literature
T5 sequence (P42330 1-323): T1 sequence (P42330 1-323)

Molecule | IC50 [1] [µM] | IC50 [2] [µM] | % of inhibition of human 17βHSD5 [3] [%] | E1 in supernatant, MCF-7 ([4]; 8 hr.) [pg/mL] | E1 in supernatant, MCF-7 ([4]; 24 hr.) [pg/mL] | melting point [°C] | IC50 [5] [µM] | IC50 [6] [µM] | inhibition at 0.1 µM [7] [%] | inhibition at 1 µM [7] [%] | IC50 [7] [µM] | IC50 [8] [µM] | IC50 [9] [µM] | IC50 [10] [µM] | IC50 [11] [µM] | IC50 [12] [µM] | E1 in supernatant, CHO ([13]; 8 hr.) [pg/mL] | E1 in supernatant, CHO ([13]; 24 hr.) [pg/mL] | IC50 [14] [µM] | also measured
C[C@]12CC[C@@H]3c4ccc(O)cc4CC[C@H]3[C@@H]1[C@H](CCc1ccc(F)cc1)CC2=O [Compound 5, 15β-(4-Fluorophenethyl)-3-hydroxy-estra-1,3,5(10)-trien-17-one] | 24.3 | 19.3 | 70 | 3373 | 2236 | 164 | 18.4 | 35.8 | 72 | 92 | 0.055 | 30.4 | 25.2 | 30.5 | 29.2 | 25.2 | 3194 | 1576 | 28.2 | 
4-hydroxytamoxifen [Compound 4-OHT, reference compound] |  |  |  |  |  |  |  |  |  |  |  |  |  |  |  |  |  |  |  | IC50 [15]: 10.2 µM; IC50 [16]: 12 µM
Cc1ccc(CC[C@@H]2CC(=O)[C@@]3(C)CC[C@@H]4c5ccc(O)cc5CC[C@H]4[C@H]23)cc1 [Compound 15, 3-Hydroxy-15β-(4-methylphenethyl)-estra-1,3,5(10)-trien-17-one] | 27.9 | 13.8 | 86 | 719 | 948 | 159 | 19.6 | 28.2 | 87 | 100 | 0.008 | 28.9 | 23.8 | 29.4 | 28.3 | 21.7 | 750 | 554 | 24.1 | 
COC(=O)c1ccc(CC[C@@H]2CC(=O)[C@@]3(C)CC[C@@H]4c5ccc(O)cc5CC[C@H]4[C@H]23)cc1 [Compound 7, Methyl 4-(2-(3-hydroxy-estra-1,3,5(10)-trien-17-on-15β-yl)ethyl)benzoate] | > 50 | 12.5 | 63 | 1921 | 1839 | 139 | > 50 | > 50 | 84 | 99 | 0.016 | > 50 | > 50 | > 50 | > 50 | 25.6 | 2101 | 1476 | 32.8 | ER antagonism in words [17]: ER antagonist
CC#C[C@]1(O)CC[C@H]2[C@@H]3CCC4=CC(=O)CCC4=C3[C@@H](c3ccc(N(C)C)cc3)C[C@@]21C [RU486, reference compound] |  |  |  |  |  |  |  |  |  |  |  |  |  |  |  |  |  |  |  | IC50 [15]: 17.9 µM; IC50 ([16]; Homo sapiens): 47.7 µM
3-deoxyestradiol with C-17-dimethyl-spiro-δ-lactone |  |  |  |  |  |  |  |  |  |  |  |  |  |  |  |  |  |  |  | IC50 [18]: 0.0029 µM
C[C@]12CC[C@@H]3c4ccc(O)cc4CC[C@H]3[C@@H]1[C@H](CCc1ccc(Cl)cc1)CC2=O [Compound 6, 15β-(4-Chlorophenethyl)-3-hydroxy-estra-1,3,5(10)-trien-17-one] | 28.8 | 13.2 | 90 | 4251 | 3323 | 168 | 21 | 35.8 | 90 | 97 | 0.009 | 27.9 | 26.9 | 30.8 | 29.3 | 16.3 | 4137 | 1804 | 24.6 | 
CC1(C)CCC2(CCC3C4CCc5cc(C(N)=O)ccc5C4CCC32C)OC1=O [EM1404, 3-carboxamido-1,3,5-(10)-estratrien-17(R)-spiro-2-(5,5-dimethyl-6-oxo)tetra-hydro-pyran] |  |  |  |  |  |  |  |  |  |  |  |  |  |  |  |  |  |  |  | Ki ([18]; Qiu et al. 2007, WO9946279): 0.0069 µM; IC50 [18]: 0.0032 µM
